Experiments:
[1] = test system: MSTO-211H cells; assay: Tumor cell proliferation inhibition experiment (Cell Titer Glo), MSTO-211H; format: cell-based; details: MSTO-211H lung cancer cells, three days incubation
Experimental: (§1) Cell Titer Glo luminescent cell viability assay kit was used to quantify the ATP content in cells, so as to quantify the number of viable cells. […] On the second day, the compound was added to the 96-well plate after a three-fold serial dilution to eight concentrations, and incubated at 37° C. for three days in the 5% carbon dioxide incubator. The culture medium was treated with the addition of Cell Titer Glo luminescent cell viability assay kit (Promega G7570) reagent, incubated for 10 minutes, and then placed in Envision (Pelkin Elmer) to read the luminescence signal. DMSO was used instead of the compound as a control to calculate the inhibition rate (inhibition rate %=(1−compound signal/DMSO signal)*100), and then standard four parameter curve fitting was used to calculate the inhibitory activity IC50.

[2] = test system: NCI-H2052 cells; assay: Tumor cell proliferation inhibition experiment (Cell Titer Glo), NCI-H2052; format: cell-based; details: NCI-H2052 lung cancer cells, three days incubation
Experimental: as §1

| IC50 ([1]; Homo sapiens, 72 h) [nM] | IC50 ([2]; Homo sapiens, 72 h) [nM] | SMILES | IC50 [1] [nM] | IC50 [2] [nM] |
| --- | --- | --- | --- | --- |
| 640 | 930 | CNC(=O)c1cc2c(c(F)c1-c1c(Cl)c(F)cc3c1C[C@](c1ccccc1)([C@@H]1CCCN1)O3)CCC2S(C)(=O)=O (some centres unmarked) [Compound 46a] | – | – |
| > 10000 | 8370 | CNC(=O)c1cc2c(c(F)c1-c1c(Cl)c(F)cc3c1C[C@](c1ccccc1)([C@@H]1CCCN1)O3)N1C[C@H](O)CC1CO2 (some centres unmarked) [Compound 4a] | – | – |
| 390 | 590 | CNC(=O)c1cc2c(c(F)c1-c1c(Cl)c(F)cc3c1C[C@@](CN[C@H]1CC[C@](C)(O)CC1)(c1ccccc1)O3)[C@@H]1C[C@@H]1O2 (single isomer, unassigned) [Compound 14a2] | – | – |
| 2190 | 4750 | CNC(=O)c1cc2c(c(F)c1-c1c(Cl)c(F)cc3c1C[C@](c1ccccc1)([C@@H]1CCCN1)O3)CC1(CC1)C2 [Compound 1a] | – | – |
| 450 | 650 | CNC(=O)c1cc2c(c(F)c1-c1c(Cl)c(F)cc3c1C[C@](c1ccccc1)([C@@H]1CCCN1)O3)CCC2(F)F [Compound 36a] | – | – |
| 300 | 550 | CNC(=O)c1cc2c(c(F)c1-c1c(Cl)c(F)cc3c1C[C@@](CN[C@H]1CC[C@](C)(O)CC1)(c1ccccc1)O3)CCC2 [Compound 30a] | – | – |
| > 10000 | 7970 | C#Cc1c(OCCO)ncc(C(=O)NC)c1-c1c(Cl)c(F)cc2c1C[C@](c1ccccc1)([C@@H]1CCCN1)O2 [Compound 9a] | – | – |
| > 10000 | > 10000 | CNC(=O)c1cc2c(c(F)c1-c1c(Cl)c(F)cc3c1C[C@](c1ccccc1)([C@@H]1CCCN1)O3)CC(=O)C2 [Compound 65a] | – | – |
| 440 | 500 | CNC(=O)c1cc2c(c(F)c1-c1c(Cl)c(F)cc3c1C[C@](c1ccccc1)([C@@H]1CCCN1)O3)CCC2F (some centres unmarked) [Compound 43a] | – | – |
| 1940 | 3140 | CNC(=O)c1cc2c(c(F)c1-c1c(Cl)c(F)cc3c1C[C@](c1ccccc1)([C@@H]1CCCN1)O3)N1C[C@@H](F)CC1CO2 (some centres unmarked) [Compound 5a] | – | – |
| – | – | CNC(=O)c1cc2c(c(F)c1-c1c(Cl)c(F)cc3c1C[C@](c1ccccc1)([C@@H]1CCCN1)O3)C[C@H](O)[C@H]2C [Compound 57a1] | 390 | 450 |
| 220 | 290 | CNC(=O)c1cc2c(c(F)c1-c1c(Cl)c(F)cc3c1C[C@@](CN[C@H]1CC[C@](C)(O)CC1)(c1ccccc1)O3)[C@H]1C[C@H]1O2 [Compound 14a1] | – | – |
| 9800 | 9080 | CNC(=O)c1cnc(OCCO)c(OC)c1-c1c(Cl)c(F)cc2c1C[C@](c1ccccc1)([C@@H]1CCCN1)O2 [Compound 7a] | – | – |
| 150 | 240 | CNC(=O)c1cc2c(c(F)c1-c1c(Cl)c(F)cc3c1C[C@](c1ccccc1)([C@@H]1CCCN1)O3)CC(O)C2 (some centres unmarked) [Compound 49a] | – | – |
| 100 | 210 | C[C@H]1c2c(cc(F)c(Cl)c2-c2c(C(N)=O)cc3c(c2F)C2CC2O3)O[C@]1(CN[C@H]1CC[C@](C)(O)CC1)c1ccccc1 (some centres unmarked) [Compound 27a] | – | – |
| 976 | 1870 | CNC(=O)c1cc2c(c(F)c1-c1c(Cl)c(F)cc3c1C[C@](c1ccccc1)([C@@H]1CCCN1)O3)N1CCCC1CO2 (some centres unmarked) [Compound 3a] | – | – |
| 490 | 600 | CNC(=O)c1cc2c(c(F)c1-c1c(Cl)c(F)cc3c1C[C@](c1ccccc1)([C@@H]1CCCN1)O3)CCC2=O [Compound 40a] | – | – |

| IC50 ([1]; Homo sapiens, 72 h) [nM] | IC50 ([2]; Homo sapiens, 72 h) [nM] | SMILES | IC50 [1] [nM] | IC50 [2] [nM] |
| --- | --- | --- | --- | --- |
| 20 | 40 | C[C@]1(O)CC[C@H](NC[C@@]2(c3ccccc3)Cc3c(cc(F)c(Cl)c3-c3c(C(N)=O)cc4c(c3F)OC3CC43)O2)CC1 (some centres unmarked) [Compound 24a] | – | – |
| 40 | 50 | C[C@H]1c2c(cc(F)c(Cl)c2-c2c(C(N)=O)cc3c(c2F)OC2CC32)O[C@]1(CN[C@H]1CC[C@](C)(O)CC1)c1ccccc1 (some centres unmarked) [Compound 28a] | – | – |
| 490 | 580 | CNC(=O)c1cc2c(c(F)c1-c1c(Cl)c(F)cc3c1C[C@@](CN[C@H]1CC[C@](C)(O)CC1)(c1ccccc1)O3)CC(O)C2 (some centres unmarked) [Compound 80a] | – | – |
| 990 | 750 | CNC(=O)c1cc2c(c(F)c1-c1c(Cl)c(F)cc3c1C[C@](c1ccccc1)([C@@H]1CCCN1)O3)CCC2C#N (some centres unmarked) [Compound 38a] | – | – |
| > 10000 | > 10000 | CNC(=O)c1cnc(OCCO)c(O)c1-c1c(Cl)c(F)cc2c1C[C@](c1ccccc1)([C@@H]1CCCN1)O2 [Compound 6a] | – | – |
| 150 | 260 | CNC(=O)c1cc2c(c(F)c1-c1c(Cl)c(F)cc3c1[C@H](C)[C@@](CN[C@H]1CC[C@](C)(O)CC1)(c1ccccc1)O3)C1CC1O2 (some centres unmarked) [Compound 25a] | – | – |
| > 10000 | > 10000 | CNC(=O)c1cnc(OCCO)c(F)c1-c1c(Cl)c(F)cc2c1C[C@](c1ccccc1)(c1ccn[nH]1)O2 [Compound 11a] | – | – |
| 50 | 90 | CNC(=O)c1cc2c(c(F)c1-c1c(Cl)c(F)cc3c1C[C@@](CN[C@H]1CC[C@](C)(O)CC1)(c1ccccc1)O3)OC1CC21 (some centres unmarked) [Compound 22a] | – | – |
| 110 | 200 | C[C@]1(O)CC[C@H](NC[C@@]2(c3ccccc3)Cc3c(cc(F)c(Cl)c3-c3c(C(N)=O)cc4c(c3F)C3CC3O4)O2)CC1 (some centres unmarked) [Compound 23a] | – | – |
| 730 | 900 | CNC(=O)c1cc2c(c(F)c1-c1c(Cl)c(F)cc3c1C[C@@](CN[C@H]1CC[C@](C)(O)CC1)(c1ccccc1)O3)CCC2O (some centres unmarked) [Compound 42a] | – | – |
| > 10000 | > 10000 | CNC(=O)c1cc2c(c(F)c1-c1c(Cl)c(F)cc3c1C[C@](c1ccccc1)([C@@H]1CCC(=O)N1)O3)C1CC1O2 (some centres unmarked) [Compound 20a] | – | – |
| 170 | 200 | NC(=O)c1cc2c(c(F)c1-c1c(Cl)c(F)cc3c1C[C@](c1ccccc1)([C@@H]1CCCN1)O3)CCC2 [Compound 52a] | – | – |
| 2880 | 2730 | CNC(=O)c1cc2c(c(F)c1-c1c(Cl)c(F)cc3c1C[C@](c1ccccc1)([C@@H]1CC4(CC4)CN1)O3)N1CCCC1CO2 (some centres unmarked) [Compound 15a] | – | – |
| > 10000 | > 10000 | CNC(=O)c1cnc(OCCO)c(F)c1-c1c(C#N)c(F)cc2c1C[C@](c1ccccc1)([C@@H]1CCCN1)O2 [Compound 12a] | – | – |
| 30 | 40 | CNC(=O)c1cc2c(c(F)c1-c1c(Cl)c(F)cc3c1[C@H](C)[C@@](CN[C@H]1CC[C@](C)(O)CC1)(c1ccccc1)O3)OC1CC21 (some centres unmarked) [Compound 26a] | – | – |
| > 10000 | > 10000 | CNC(=O)c1cnc(OCCO)c(F)c1-c1c(Cl)c(F)cc2c1C[C@](c1ccccc1)([C@@H]1CCC(=O)N1)O2 [Compound 19a] | – | – |
| > 10000 | > 10000 | CNC(=O)c1cnc(OCCO)c(N)c1-c1c(Cl)c(F)cc2c1C[C@](c1ccccc1)([C@@H]1CCCN1)O2 [Compound 8a] | – | – |
